The values that follow come from ChEMBL document CHEMBL6121010, “Novel antileukemic compound with sub-micromolar potency against STAT5 addicted myeloid leukemia cells” (Eur J Med Chem, 2025).

For one data set, the system named is MV4-11. Description: Antileukemic activity against human MV4-11 cell line assessed as inhibition of cell growth incubated for 48 hrs by MTT assay. The class given is functional, cell-based. Particulars: MV4-11, 48 h.
Another data set relates to KU812 cell line. Description: Antileukemic activity against human KU812 cell line assessed as inhibition of cell growth incubated for 48 hrs by MTT assay. In kind it is functional, cell-based. Particulars: KU812, 48 h.
The nature of data set [1]: Cytotoxicity against human HS-27A assessed as cell viability incubated for 48 hrs by MTT assay. In kind it is toxicity, cell-based. To be noted: HS-27A cells. A general note: Tetrazolium assays rely on reduction of a dye to a coloured formazan, in cell work by metabolically active cells.
For another data set, the system named is MOLM-13. Description: Antileukemic activity against human MOLM-13 assessed as cell viability incubated for 48 hrs by MTT assay. The class given is functional, cell-based. Particulars: MOLM-13, 48 h.
The next data set relates to K562. Description: Antileukemic activity against human K562 assessed as cell viability incubated for 48 hrs by MTT assay. The class given is functional, cell-based. To be noted: K562, 48 h.
Data set [2] can be described thus: Cytotoxicity against Bone marrow cell (unknown origin) assessed as cell viability incubated for 48 hrs by MTT assay. The class given is toxicity, cell-based. To be noted: bone marrow cells (unknown origin).
The subject of a further data set is KCL-22. Put plainly: Antileukemic activity against human KCL-22 assessed as cell viability incubated for 48 hrs by MTT assay. The class given is functional, cell-based. Particulars: KCL-22, 48 h.

As to `CC1(C)CCN(CCOc2ccc3[nH]ccc3c2)c2ccc(-c3cncnc3)cc21`, the figures for the EC50 in the data set on MV4-11 and in the data set with KU812 cell line were 4.2 µM and 8.3 µM, respectively.
In the same order, the values of `CC1(C)CCN(CCOc2ccc3[nH]ccc3c2)c2ccc(-c3ncccn3)cc21` are 4.5 µM and 29.5 µM.
`O=c1[nH]c2ccccc2n1C1CCN(CCCC(c2ccc(F)cc2)c2ccc(F)cc2)CC1` [PIMOZIDE]: the results for the EC50 at 48 h in data set [1] and in data set [2] were 57.5 µM and 18.2 µM, respectively. The EC50 in the data set on MV4-11 turned out to be 3.2 µM; with MOLM-13 it was 5.9 µM; with KU812 cell line, 2.9 µM; in the data set on K562 it was 3.5 µM; in the data set on KCL-22, 9.3 µM.
With `CC1(C)CCN(CCOc2ccc3[nH]ccc3c2)c2ccc(Cc3ccccn3)cc21`, the EC50 in the data set on MV4-11 was found to be 7.7 µM; in the data set with KU812 cell line, 11.5 µM.
In the same order, the values of `CC1(C)CCN(CCOc2ccc3[nH]ccc3c2)c2cccc(-c3ccnnc3)c21` are 14 µM and 23.5 µM.
In the same order, the values of `CC1(C)CCN(CCOc2ccc3[nH]ccc3c2)c2cccc(-c3cnc(C#N)nc3)c21` are 5.1 µM and 4.7 µM.
Take `CC1(C)CCN(CCOc2ccc3[nH]ccc3c2)c2ccc(Cc3ccncc3)cc21`: the EC50 in the data set on MV4-11 came to 25.8 µM; in the data set on KU812 cell line, 21.3 µM.
For the compound `CC1(C)CCN(CCOc2ccc3[nH]ccc3c2)c2cc(Cc3ccncc3)ccc21`, the EC50 in the data set on MV4-11 stood at 14.3 µM.
On to `CC1(C)CCN(CCOc2ccc3[nH]ccc3c2)c2cccc(Cc3cccnc3)c21`, for which the figures for the EC50 in the data set with MV4-11 and with KU812 cell line were 3.1 µM and 9.3 µM, respectively.
In the same order, the values of `CC1(C)CCN(CCOc2ccc3[nH]ccc3c2)c2cc(Cc3ccccn3)ccc21` are 34.2 µM and more than 100 µM.
In the same order, the values of `CC1(C)CCN(CCOc2ccc3[nH]ccc3c2)c2ccc(-c3cnc(N)cn3)cc21` are 13.7 µM and 29.2 µM.
On to `CC1(C)CCN(CCOc2ccc3[nH]ccc3c2)c2ccc(-c3cnc(Cl)nc3)cc21`, for which the EC50 in the data set on MV4-11 is 2.4 µM; in the data set with KU812 cell line it was 1.3 µM.
In the same order, the values of `CC1(C)CCN(CCOc2ccc3[nH]ccc3c2)c2cccc(-c3cccnc3)c21` are 5.9 µM and 5.8 µM.
As for `CC1(C)CCN(CCOc2ccc3[nH]ccc3c2)c2cccc(Cc3ccccn3)c21`, the EC50 in the data set on MV4-11 was found to be 12.4 µM; with KU812 cell line, 74.4 µM.
In the same order, the values of `CC1(C)CCN(CCOc2ccc3[nH]ccc3c2)c2cccc(-c3cnc(Cl)nc3)c21` are 9 µM and 6.7 µM.
For `CC1(C)CCN(CCOc2ccc3[nH]ccc3c2)c2ccc(-c3ccnnc3)cc21`, the values for the EC50 in the data set on MV4-11 and with KU812 cell line were 16 µM and 44.6 µM, respectively.
In the same order, the values of `CC1(C)CCN(CCOc2ccc3[nH]ccc3c2)c2cc(Cc3cccnc3)ccc21` are 20.5 µM and 25.1 µM.
In the case of `CC1(C)CCN(CCOc2ccc3[nH]ccc3c2)c2ccc(-c3cccnc3)cc21`, the EC50 at 48 h stood at 63.3 µM in data set [1] and 57.6 µM in data set [2]. Further, the half-maximal effective concentration (EC50) in the data set with MV4-11 was 3.6 µM; in the data set on MOLM-13, 3.3 µM; in the data set on KU812 cell line, 5.4 µM; in the data set with K562, 8.7 µM; in the data set on KCL-22, 5.6 µM.
For `CC1(C)CCN(CCOc2ccc3[nH]ccc3c2)c2cccc(-c3ccncc3)c21`, the EC50 with MV4-11 was determined as 2.8 µM; in the data set with KU812 cell line it was 2.5 µM.
For `CC1(C)CCN(CCOc2ccc3[nH]ccc3c2)c2cccc(-c3cncnc3)c21`, the 50% effective concentration (EC50) in the data set on MV4-11 was 51.9 µM; in the data set with KU812 cell line, more than 100 µM.
For the compound `CC1(C)CCN(CCOc2ccc3[nH]ccc3c2)c2ccc(Cc3cccnc3)cc21`, the EC50 in the data set with MV4-11 stood at 4.9 µM; with KU812 cell line, 5.3 µM.
`CC1(C)CCN(CCOc2ccc3[nH]ccc3c2)c2cccc(Cc3ccncc3)c21`: the EC50 in the data set on MV4-11 amounted to 1.3 µM; in the data set with KU812 cell line, 2.7 µM.
With `CC1(C)CCN(CCOc2ccc3[nH]ccc3c2)c2ccc(-c3cnc(C#N)nc3)cc21`, the EC50 with MV4-11 worked out at 3.5 µM; in the data set with KU812 cell line, 2.4 µM.
For `CC(C)(C)c1cc(CN(C(=O)CN(Cc2ccc(Cl)cc2)S(=O)(=O)c2c(F)c(F)c(F)c(F)c2F)c2ccc(C(=O)O)cc2)cc(C(C)(C)C)c1`, the concentration for a half-maximal effect (EC50) at 48 h in data set [1] stood at 27.8 µM; in data set [2] it was 18.1 µM. Further, the concentration giving a half-maximal response (EC50) with MV4-11 came out at 2.6 µM; with MOLM-13, 2.8 µM; in the data set on KU812 cell line, 4.3 µM; in the data set with K562, 10.1 µM; in the data set on KCL-22 it was 15.3 µM.
As to `CC1(C)CCN(CCOc2ccc3[nH]ccc3c2)c2ccc(-c3cnccn3)cc21`, the EC50 in the data set on MV4-11 was 7.7 µM; with KU812 cell line, 48.1 µM.
Turning to `CC1(C)CCN(CCOc2ccc3[nH]ccc3c2)c2ccc(-c3cnc(N)nc3)cc21`, the EC50 at 48 h in data set [1] was 43.9 µM; in data set [2], 14.5 µM. The EC50 was 0.4 µM in the data set with MV4-11; 0.3 µM in the data set on MOLM-13; 2.3 µM in the data set on KU812 cell line; 2.9 µM with K562; 0.3 µM in the data set on KCL-22.
As to `CC1(C)CCN(CCOc2ccc3[nH]ccc3c2)c2cccc(-c3cnccn3)c21`, the EC50 with MV4-11 came to 15.3 µM; in the data set with KU812 cell line, 39.3 µM.
On to `CC1(C)CCN(CCOc2ccc3[nH]ccc3c2)c2cccc(-c3cnc(N)cn3)c21`, for which the 50% effective concentration (EC50) in the data set on MV4-11 amounted to 14.6 µM; in the data set on KU812 cell line it was 21.2 µM.

In general, EC50 refers to the midpoint of the concentration-response curve.
